The term IC50 denotes the concentration needed to halve the response being measured. The term IC90 denotes the concentration at which the effect reaches the 90% level.

Experimental findings from ChEMBL document CHEMBL4483862, “Open-source discovery of chemical leads for next-generation chemoprotective antimalarials” (2018) are described below.

The assay relates to Plasmodium berghei. Kind of assay: Luciferase/luciferin-expressing antifolate-resistant parasites were used to infect a culture of HepG2 cells that were pre-incubated with compounds. Infected hepatocytes emit light due to the luciferase reaction. Assay results are presented as the percent inhibition of light emission compared to control. […]. The format is functional. To be noted: sporozoite; for IC90: read-out: LUCIFERASE INFECTION ASSAY - IC90.

As to `CC1CC(C)CN(C2=CC(=[N+]3CCCC3)CC(C)(C)C2)C1` (centres undefined), the concentration for an effect of 90% (IC90) was determined as 2020 nM. Under “HEPG2TOX_HILL_SLOPE 0.983, HEPG2TOX_R_SQUARED 0.985, PBLUC_HILL_SLOPE 2.02, PBLUC_R_SQUARED 0.664, read-out: LUCIFERASE INFECTION ASSAY - IC50”, the IC50 worked out at 682 nM.

`CNc1snc(C)c1C(=O)OCc1cc(C(=O)OC)c(C)o1`: the concentration for an effect of 90% (IC90) worked out at 2410 nM. For the setting “HEPG2TOX_HILL_SLOPE 0.962, HEPG2TOX_R_SQUARED 0.934, PBLUC_HILL_SLOPE 25, PBLUC_R_SQUARED 0.565, read-out: LUCIFERASE INFECTION ASSAY - IC50”, the IC50 was determined as 2200 nM.

As for `O=C1Nc2ccc(F)cc2/C1=N/NC(=S)NC1CC2C=CC1C2` (centres undefined), the IC90 came out at 1380 nM. The concentration for half-maximal inhibition (IC50) (HEPG2TOX_HILL_SLOPE 0.956, HEPG2TOX_R_SQUARED 0.854, PBLUC_HILL_SLOPE 4.64, PBLUC_R_SQUARED 0.779, read-out: LUCIFERASE INFECTION ASSAY - IC50) was 860 nM.

Turning to `Fc1ccc(NC(=S)N2CCN(c3ncnc4sccc34)CC2)c(F)c1`, the IC90 is 2970 nM. The IC50 (HEPG2TOX_HILL_SLOPE 0.955, HEPG2TOX_R_SQUARED 0.941, PBLUC_HILL_SLOPE 17.3, PBLUC_R_SQUARED 0.219, read-out: LUCIFERASE INFECTION ASSAY - IC50) was found to be 2620 nM.

With `COc1ccc2c(c1)CCCN2C(=O)c1occc1C`, the IC90 came to 1230 nM. Moreover, the IC50 (HEPG2TOX_HILL_SLOPE 0.966, HEPG2TOX_R_SQUARED 0.937, PBLUC_HILL_SLOPE 15.5, PBLUC_R_SQUARED 0.354, read-out: LUCIFERASE INFECTION ASSAY - IC50) is 1070 nM.

In the case of `CCOC(=O)c1[nH]c(C)c(C(=O)OCC(=O)Nc2ccc(Cl)cn2)c1C`, the IC90 is 2910 nM. Moreover, the IC50 (HEPG2TOX_HILL_SLOPE 0.952, HEPG2TOX_R_SQUARED 0.987, PBLUC_HILL_SLOPE 2.41, PBLUC_R_SQUARED 0.555, read-out: LUCIFERASE INFECTION ASSAY - IC50) amounted to 1170 nM.

For `O=C1CCCN1c1ccc(S(=O)(=O)Oc2ccc(Cl)cc2)cc1`, the IC90 amounted to 2910 nM. The IC50 (HEPG2TOX_HILL_SLOPE 0.952, HEPG2TOX_R_SQUARED 0.945, PBLUC_HILL_SLOPE 2.14, PBLUC_R_SQUARED 0.73, read-out: LUCIFERASE INFECTION ASSAY - IC50) is 1040 nM.

Regarding `Cn1cc(/C=C/C(=O)Nc2ncc(Cc3ccccc3)s2)cn1`, the IC90 turned out to be 2150 nM. Besides, under “HEPG2TOX_HILL_SLOPE 0.97, HEPG2TOX_R_SQUARED 0.894, PBLUC_HILL_SLOPE 1.67, PBLUC_R_SQUARED 0.671, read-out: LUCIFERASE INFECTION ASSAY - IC50”, the IC50 turned out to be 578 nM.

As for `CCOc1ccc(C(=O)CN(C#N)C(=O)c2ccccc2)cc1`, the 90% effect concentration (IC90) was 758 nM. Besides, where the note is “HEPG2TOX_HILL_SLOPE 0.95, HEPG2TOX_R_SQUARED 0.917, PBLUC_HILL_SLOPE 159, PBLUC_R_SQUARED 0.609, read-out: LUCIFERASE INFECTION ASSAY - IC50”, the IC50 is 747 nM.

Regarding `CCOc1cc(/C=C/C(=O)c2ccc(-c3ccccc3)cc2)ccc1OCC(=O)N(C)C`, the IC90 is more than 10000 nM. For the same compound, the IC50 (HEPG2TOX_HILL_SLOPE 0.976, HEPG2TOX_R_SQUARED 0.779, read-out: LUCIFERASE INFECTION ASSAY - IC50) was more than 10000 nM.

In the case of `O=C(Nc1nc2ccc([N+](=O)[O-])cc2s1)c1cccc(Cl)c1`, the IC90 is more than 10000 nM. Moreover, the IC50 (HEPG2TOX_HILL_SLOPE 0.963, HEPG2TOX_R_SQUARED 0.986, PBLUC_HILL_SLOPE 0.779, PBLUC_R_SQUARED 0.754, read-out: LUCIFERASE INFECTION ASSAY - IC50) was 754 nM.

On to `CC(C)c1cc(C(=O)Nc2nnc3ccccn23)c2cnn(C(C)C)c2n1`, for which the IC90 was 4310 nM. The IC50 (HEPG2TOX_HILL_SLOPE 0.96, HEPG2TOX_R_SQUARED 0.828, PBLUC_HILL_SLOPE 9.22, PBLUC_R_SQUARED 0.235, read-out: LUCIFERASE INFECTION ASSAY - IC50) was determined as 3400 nM.

As for `O=C1CCCN1CCCNc1cc(-c2ccccc2)c2ccccc2n1`, the concentration for an effect of 90% (IC90) came out at 4460 nM. Besides, the IC50 (HEPG2TOX_HILL_SLOPE 0.987, HEPG2TOX_R_SQUARED 0.959, PBLUC_HILL_SLOPE 13.1, PBLUC_R_SQUARED 0.545, read-out: LUCIFERASE INFECTION ASSAY - IC50) came out at 3770 nM.

In the case of `CC1=C(C(=O)OCc2ccccc2)C(c2ccc(Cl)c([N+](=O)[O-])c2)n2nnnc2N1` (centres undefined), the IC90 was more than 10000 nM. In addition, for the setting “HEPG2TOX_HILL_SLOPE 0.964, HEPG2TOX_R_SQUARED 0.562, read-out: LUCIFERASE INFECTION ASSAY - IC50”, the IC50 is more than 10000 nM.

On to `N#Cc1c(Cl)cccc1N1CCC(C#N)CC1`, for which the IC90 is more than 13400 nM. The IC50 (HEPG2TOX_HILL_SLOPE 0.959, HEPG2TOX_R_SQUARED 0.904, PBLUC_HILL_SLOPE 1.25, PBLUC_R_SQUARED 0.0637, read-out: LUCIFERASE INFECTION ASSAY - IC50) was 6330 nM.

Turning to `CC(=O)Nc1cccc(-c2cnc3ccc(-c4ccc(S(C)(=O)=O)cc4)nn23)c1`, the IC90 came to 9620 nM. Besides, the IC50 (HEPG2TOX_HILL_SLOPE 0.982, HEPG2TOX_R_SQUARED 0.906, PBLUC_HILL_SLOPE 3.7, PBLUC_R_SQUARED 0.22, read-out: LUCIFERASE INFECTION ASSAY - IC50) worked out at 5310 nM.

In the case of `COc1ccc(NC(=O)c2cc(-c3ccccc3)n(-c3ccccc3)c2C)cc1`, the IC90 came to 4380 nM. For the same compound, the IC50 (HEPG2TOX_HILL_SLOPE 0.976, HEPG2TOX_R_SQUARED 0.937, PBLUC_HILL_SLOPE 1.32, PBLUC_R_SQUARED 0.59, read-out: LUCIFERASE INFECTION ASSAY - IC50) amounted to 834 nM.

As for `O=c1ccc(-c2nc3c4c5c(sc4ncn3n2)CCCCC5)n[nH]1`, the IC90 was found to be 8470 nM. In addition, the IC50 (HEPG2TOX_HILL_SLOPE 0.965, HEPG2TOX_R_SQUARED 0.912, PBLUC_HILL_SLOPE 1.19, PBLUC_R_SQUARED 0.691, read-out: LUCIFERASE INFECTION ASSAY - IC50) was determined as 1330 nM.

On to `CCOc1ccc(CN(C)CC(=O)NCCc2ccc(S(N)(=O)=O)cc2)cc1`, for which the IC90 is more than 10000 nM. The IC50 (HEPG2TOX_HILL_SLOPE 0.961, HEPG2TOX_R_SQUARED 0.961, PBLUC_HILL_SLOPE 1.57, PBLUC_R_SQUARED 0.525, read-out: LUCIFERASE INFECTION ASSAY - IC50) was found to be 3650 nM.

Regarding `NS(=O)(=O)c1ccc(CNC(=O)c2ccc(Cn3cccn3)cc2)s1`, the concentration for an effect of 90% (IC90) is more than 10000 nM. Also, the IC50 (HEPG2TOX_HILL_SLOPE 0.983, HEPG2TOX_R_SQUARED 0.0206, read-out: LUCIFERASE INFECTION ASSAY - IC50) is more than 10000 nM.

For `CC(=O)c1ccccc1OCCOC(=O)/C(C#N)=C/c1cc(C)n(CCC(C)C)c1C`, the IC90 was 1720 nM. For the same compound, for the setting “HEPG2TOX_HILL_SLOPE 0.948, HEPG2TOX_R_SQUARED 0.676, PBLUC_HILL_SLOPE 14.8, PBLUC_R_SQUARED 0.615, read-out: LUCIFERASE INFECTION ASSAY - IC50”, the IC50 was found to be 1480 nM.

Turning to `CN(C)c1nc2cc(C(=O)Nc3ccccc3OC(F)F)sc2n1-c1ccccc1`, the 90% effect concentration (IC90) is 2470 nM. Further, the IC50 (HEPG2TOX_HILL_SLOPE 0.955, HEPG2TOX_R_SQUARED 0.898, PBLUC_HILL_SLOPE 1.96, PBLUC_R_SQUARED 0.521, read-out: LUCIFERASE INFECTION ASSAY - IC50) worked out at 803 nM.

Regarding `CC(=O)Nc1ccc(Nc2nc3cc(S(=O)(=O)Nc4cccc(Cl)c4)ccc3o2)cc1`, the IC90 is 9970 nM. Also, the half-maximal inhibitory concentration (IC50) (HEPG2TOX_HILL_SLOPE 0.957, HEPG2TOX_R_SQUARED 0.862, PBLUC_HILL_SLOPE 2.24, PBLUC_R_SQUARED 0.74, read-out: LUCIFERASE INFECTION ASSAY - IC50) is 3740 nM.

For `CC(C)N1CCCc2cc(CN3CCC4(CC3)C(=O)N(CCCc3ccncc3)C(=O)N4C)ccc21`, the concentration for an effect of 90% (IC90) is more than 6740 nM. Besides, the IC50 (HEPG2TOX_HILL_SLOPE 0.974, HEPG2TOX_R_SQUARED 0.954, PBLUC_HILL_SLOPE 1.42, PBLUC_R_SQUARED 0.506, read-out: LUCIFERASE INFECTION ASSAY - IC50) was determined as 3480 nM.

For `O=C(Nc1ccc2c(c1)OCO2)C1CCN(c2ccnc3cc(Cl)ccc23)CC1`, the IC90 was 8100 nM. Besides, the IC50 (HEPG2TOX_HILL_SLOPE 0.967, HEPG2TOX_R_SQUARED 0.942, PBLUC_HILL_SLOPE 2.72, PBLUC_R_SQUARED 0.6, read-out: LUCIFERASE INFECTION ASSAY - IC50) was 3610 nM.

For the compound `COc1cc2c(cc1OC)C(c1cccs1)N(C(=O)Nc1cc(C)on1)CC2` (centres undefined), the IC90 was determined as 2700 nM. Besides, under “HEPG2TOX_HILL_SLOPE 0.982, HEPG2TOX_R_SQUARED 0.92, PBLUC_HILL_SLOPE 3.46, PBLUC_R_SQUARED 0.391, read-out: LUCIFERASE INFECTION ASSAY - IC50”, the IC50 amounted to 1430 nM.

For the compound `Cc1ccccc1-c1cccc(CN2CCC3(CC2)C(=O)N(CCCc2ccncc2)C(=O)N3C)c1`, the IC90 stood at 2530 nM. For the same compound, the IC50 (HEPG2TOX_HILL_SLOPE 0.98, HEPG2TOX_R_SQUARED 0.922, PBLUC_HILL_SLOPE 14, PBLUC_R_SQUARED 0.565, read-out: LUCIFERASE INFECTION ASSAY - IC50) turned out to be 2160 nM.
